This note sets out measurements from US11020380B2, “Therapeutic compounds” (CELGENE QUANTICEL RESEARCH, INC., priority 2017, dated 2021).

Common to all, as to type: binding
Test [1] deals with CBP (Homo sapiens, UniProt Q92793). Nature of the test: In vitro CBP inhibition (AlphaScreen, biotinylated H4-tetraacetyl peptide). Here is the method: (§1) The CBP-inhibitory activity of the compounds described herein was determined by calculating the IC50. More specifically, CBP inhibitor activity was assayed as follows: CBP was cloned and expressed in E. coli as His-tag protein and purified by Nickel affinity and gel-filtration chromatography. […] CBP binding and inhibition is assessed by monitoring the interaction of biotinylated H4-tetraacetyl peptide (AnaSpec, H4K5/8/12/16(Ac), biotin-labeled) with the target using the AlphaScreen technology (Perkin Elmer). In a 384-well ProxiPlate CBP (50 nM final) was combined with peptide (20 nM final) in 50 mM HEPES (pH 7.3), 10 mM NaCl, 0.25 mM TCEP, 0.1% (w/v) BSA, and 0.005% (w/v) Brij-35 either in the presence of DMSO (final 0.4% DMSO) or compound dilution series in DMSO. After 20 min incubation at room temp, Alpha-streptavidin donor beads and Nickel Chelate acceptor beads were added to a final concentration of 5 μg/mL.
CBP (Homo sapiens, UniProt Q92793), sequence (Q92793 2-2442 limits assumed): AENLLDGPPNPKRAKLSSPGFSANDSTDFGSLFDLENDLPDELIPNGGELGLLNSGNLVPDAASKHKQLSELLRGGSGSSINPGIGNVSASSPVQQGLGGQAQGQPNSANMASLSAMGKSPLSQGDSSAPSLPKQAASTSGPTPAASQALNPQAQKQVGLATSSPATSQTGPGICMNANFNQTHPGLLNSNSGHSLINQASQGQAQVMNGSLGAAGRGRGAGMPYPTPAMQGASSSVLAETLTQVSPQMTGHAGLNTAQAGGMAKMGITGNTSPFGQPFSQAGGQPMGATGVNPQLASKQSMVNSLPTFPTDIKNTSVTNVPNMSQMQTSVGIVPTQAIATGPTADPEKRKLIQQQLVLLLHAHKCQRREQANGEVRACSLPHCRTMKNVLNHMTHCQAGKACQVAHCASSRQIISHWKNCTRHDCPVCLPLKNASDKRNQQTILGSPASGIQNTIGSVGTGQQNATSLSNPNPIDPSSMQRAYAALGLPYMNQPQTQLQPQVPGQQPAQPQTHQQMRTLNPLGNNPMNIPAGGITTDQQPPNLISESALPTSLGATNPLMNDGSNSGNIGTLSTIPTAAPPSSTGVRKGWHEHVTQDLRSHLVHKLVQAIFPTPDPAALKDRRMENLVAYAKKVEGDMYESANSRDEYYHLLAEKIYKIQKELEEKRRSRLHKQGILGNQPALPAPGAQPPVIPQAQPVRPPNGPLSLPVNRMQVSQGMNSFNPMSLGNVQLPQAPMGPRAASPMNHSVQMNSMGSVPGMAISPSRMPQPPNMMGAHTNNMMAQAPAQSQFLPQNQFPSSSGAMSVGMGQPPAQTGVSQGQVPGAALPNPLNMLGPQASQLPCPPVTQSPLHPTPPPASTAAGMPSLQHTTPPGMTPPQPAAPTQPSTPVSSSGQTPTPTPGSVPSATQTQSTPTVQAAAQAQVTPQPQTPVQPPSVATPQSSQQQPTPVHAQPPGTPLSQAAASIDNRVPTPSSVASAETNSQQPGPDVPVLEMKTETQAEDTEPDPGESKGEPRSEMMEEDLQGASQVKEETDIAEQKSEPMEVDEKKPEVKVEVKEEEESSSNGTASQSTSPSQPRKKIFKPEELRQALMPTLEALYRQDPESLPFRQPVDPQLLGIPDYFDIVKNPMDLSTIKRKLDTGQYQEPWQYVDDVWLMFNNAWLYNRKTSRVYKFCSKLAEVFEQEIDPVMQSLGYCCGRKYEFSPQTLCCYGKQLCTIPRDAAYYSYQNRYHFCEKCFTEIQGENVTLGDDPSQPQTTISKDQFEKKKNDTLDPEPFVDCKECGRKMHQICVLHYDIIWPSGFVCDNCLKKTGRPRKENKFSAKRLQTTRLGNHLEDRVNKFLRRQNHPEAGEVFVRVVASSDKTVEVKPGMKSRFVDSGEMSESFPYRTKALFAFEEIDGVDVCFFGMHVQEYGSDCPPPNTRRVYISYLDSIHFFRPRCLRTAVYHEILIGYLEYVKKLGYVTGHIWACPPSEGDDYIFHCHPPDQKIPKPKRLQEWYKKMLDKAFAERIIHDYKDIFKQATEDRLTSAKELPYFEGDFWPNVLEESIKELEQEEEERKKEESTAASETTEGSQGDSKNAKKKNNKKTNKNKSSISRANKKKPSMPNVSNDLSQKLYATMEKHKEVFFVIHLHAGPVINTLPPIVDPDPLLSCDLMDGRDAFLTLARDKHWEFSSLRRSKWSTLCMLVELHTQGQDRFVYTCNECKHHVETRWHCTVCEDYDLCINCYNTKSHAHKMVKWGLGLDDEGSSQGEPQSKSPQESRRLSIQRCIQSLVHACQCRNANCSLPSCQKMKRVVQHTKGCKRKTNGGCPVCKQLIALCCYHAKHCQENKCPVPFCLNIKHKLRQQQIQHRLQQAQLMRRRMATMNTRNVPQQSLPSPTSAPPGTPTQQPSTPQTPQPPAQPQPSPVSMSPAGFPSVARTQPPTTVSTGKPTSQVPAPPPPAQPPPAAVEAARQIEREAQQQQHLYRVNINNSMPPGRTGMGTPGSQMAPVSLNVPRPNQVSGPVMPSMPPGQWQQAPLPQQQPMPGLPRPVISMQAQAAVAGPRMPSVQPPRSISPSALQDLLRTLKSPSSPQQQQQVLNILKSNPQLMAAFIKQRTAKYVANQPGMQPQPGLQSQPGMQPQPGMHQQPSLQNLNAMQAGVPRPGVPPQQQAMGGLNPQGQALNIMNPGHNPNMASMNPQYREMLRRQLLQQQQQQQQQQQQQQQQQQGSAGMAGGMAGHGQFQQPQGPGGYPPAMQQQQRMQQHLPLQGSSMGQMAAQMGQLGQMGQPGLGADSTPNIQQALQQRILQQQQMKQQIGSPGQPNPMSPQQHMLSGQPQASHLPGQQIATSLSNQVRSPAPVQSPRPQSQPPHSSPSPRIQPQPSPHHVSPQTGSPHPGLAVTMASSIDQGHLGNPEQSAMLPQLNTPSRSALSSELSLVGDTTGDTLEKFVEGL
(§2) The ability of the compounds disclosed herein to inhibit CBP activity was quantified and the respective IC50 value determined.
Background: Alpha assays give light when donor and acceptor beads are brought close together.

For a further test, the target named is BRD4 (Homo sapiens (Human), UniProt O60885). Nature of the test: In vitro enzyme inhibition assay - BRD4 inhibition. The settings on record: BRD4 BD1.
Test [2] has as its system CBP. The test is described as follows: In vitro CBP inhibition (AlphaScreen, biotinylated H4-tetraacetyl peptide). Particulars: selectivity CBP vs BRD4. Here is the method:
as §1, §2

Like-named read-outs stand apart in the source and are kept apart here.

By IC50 is commonly meant the concentration that gives 50% inhibition. As to `CCOc1cc(=O)n(C)cc1-c1cnn(C(C)c2ccccc2)c1` (stereo not shown) [Example 39, 4-ethoxy-1-methyl-5-(1-(1-phenylethyl)-1H-pyrazol-4-yl) pyridin-2(1H)-one], the IC50 at CBP [1] (read-out: CBP IC50) was less than 500 nM.
In the case of `CNC(=O)[C@@H]1CCN(c2cc(=O)n(C)cc2-c2cnn(Cc3ccccc3)c2)C1` [Example 88], on CBP [1] (read-out: CBP IC50), the IC50 is less than 500 nM.
Same read-out and setting: for `CN(C)CCCOc1ccc(-c2cc(=O)n(C)cc2-c2cnn(-c3cccc(Cl)c3C#N)c2)cn1` [Example 356, 2-chloro-6-(4-(6-(3-(dimethylamino)propoxy)-1′-methyl-6′-oxo-1′,6′-dihydro-[3,4′-bipyridin]-3′-yl)-1H-pyrazol-1-yl)benzonitrile] the value was less than 500 nM.
As for “1-methyl-5-(1-(1-phenylethyl)-1H- pyrazol-4-yl)-4-(pyrrolidin-1-yl) pyridin-2(1H)-one [Example 41]”, the IC50 was less than 500 nM at CBP [1] (read-out: CBP IC50), less than 500 nM at CBP [1] (read-out: CRREBBP IC50) and 500 to 5000 nM on BRD4.
For the molecule `Cn1cc(-c2cnn(Cc3ccccc3)c2)c(-n2cccc2)cc1=O` [5-(1-benzyl-1H-pyrazol-4-yl)-1-methyl-4-(1H-pyrrol-1-yl)pyridin-2(1H)-one], the “IC50 for CBP compared with IC50 for BRD4” value with CBP [2] is reported as “lower IC50 for CBP than for BRD4”.
